Test results reported in the NIST ThermoML archive (doi:10.1021/je900888e).

Assay: mn = molality of the nth substance listed, in mol/kg
Settings: 101 kPa, Liquid; for speed of sound: Pulse-echo method

CCCC[P+](CCCC)(CCCC)CCCC.[Br-] [tetrabutylphosphonium bromide] + CCCO
Settings	mass density, 288.15 K [kg/m3]	mass density, 293.15 K [kg/m3]	mass density, 298.15 K [kg/m3]	mass density, 303.15 K [kg/m3]	mass density, 308.15 K [kg/m3]	mass density, 313.15 K [kg/m3]	mass density, 323.15 K [kg/m3]	speed of sound, 298.15 K [m/s]
m1 = 0.008229	808.063	804.08	800.075	796.04	791.98	787.867	779.506	–
m1 = 0.01006	808.2	804.217	800.212	796.179	792.12	788.009	779.649	1205.6
m1 = 0.01526	808.58	804.599	800.599	796.569	792.51	788.405	780.051	–
m1 = 0.02043	808.96	804.977	800.981	796.957	792.896	788.788	780.443	–
m1 = 0.02524	809.318	805.33	801.34	797.315	793.259	789.158	780.808	1206.6
m1 = 0.03024	809.68	805.698	801.705	797.688	793.626	789.53	781.191	–
m1 = 0.03749	810.212	806.23	802.24	798.225	794.174	790.075	781.741	–
m1 = 0.05294	811.322	807.354	803.369	799.354	795.307	791.221	782.905	1208.6
m1 = 0.06813	812.403	808.443	804.463	800.458	796.411	792.34	784.043	1209.5
m1 = 0.0867	813.75	809.793	805.818	801.819	797.792	793.72	785.44	1210.8
m1 = 0.1076	815.247	811.298	807.331	803.338	799.313	795.248	786.995	1212.2
m1 = 0.1375	817.423	813.485	809.531	805.541	801.524	797.479	789.244	1213.9
m1 = 0.1743	820.087	816.159	812.214	808.243	804.242	800.208	792.006	1216.2
m1 = 0.2115	822.781	818.864	814.928	810.97	806.982	802.96	794.787	1218.4
m1 = 0.2447	825.209	821.3	817.377	813.431	809.45	805.445	797.302	1220.7
m1 = 0.2873	828.335	824.437	820.523	816.588	812.63	808.638	800.526	1223.5
m1 = 0.3248	831.089	827.205	823.305	819.382	815.432	811.451	803.369	1225.7
